Results published in paper PMC11793105, “A kalihinol analog disrupts apicoplast function and vesicular trafficking in P. falciparum malaria” (Science (New York, N.Y.), 2024).

System: P. falciparum HB3 (MRA-155)
Experiment: SYBR Green I growth inhibition assay, HB3
Type: cell-based, Plasmodium falciparum
Details: early-ring stage, 72 h exposure
Description: Fig. 1. […] (B) SYBR Green–based dose response assays were conducted on early-ring stage parasites (6 hours after invasion). […] 3D7 WT (blue), NF54 (green), drug-resistant strains Dd2 (red), HB3 (black), W2 (gray), and D10-ACP-GFP (purple) lines (Sigmoidal, 4PL, X is concentration, n ≥ 3, nonlinear regression, CI: 95%). (C) Schematic diagram of the development of P. falciparum after two consecutive erythrocytic cycles. The time points at which MED6-189 was introduced are depicted in green. HPS, hours post synchronization. […] The images depict various developmental stages of the parasite’s intraerythrocytic life cycle. Bordered images represent time points when drug was first introduced (n = 3 biological replicates, P < 0.05).
Detailed information on materials and methods is available in the supplementary materials. […] P. knowlesi assays were quantitatively measured by flow cytometry using SYBR Green I and Mitrotracker Deep Red, as previously described ([84], [85]), on a Beckman Coulter CytoFLEX. […]
P. falciparum in vitro SYBR green fluorescence-based assays The anti-malarial activity of individual analogues were evaluated in-vitro against P. falciparum 3D7 (MRA-102, drug […]
green-I based fluorescence assay. Parasite growth rate and stages of development were determined via microscopy through Giemsa-stained smears of the cultures. […]

[C-]#[N+][C@]1(C)CC[C@H]2[C@@H]([C@@H](C(C)C)CC[C@]2(C)[N+]#[C-])[C@H]1O [MED6-189]
IC50 (Plasmodium falciparum, HB3, 72 h): 23 ± 2 nM
IC50: 22.8 nM
